These results are taken from US9751869B2, “LXR modulators” (BRISTOL-MYERS SQUIBB COMPANY, priority 2013, dated 2017).

The target in this experiment is T1, LXRβ (Homo sapiens, UniProt P55055).
T1 construct: Co-transfection expression plasmids, comprising full-length LXRα (pCMX-h LXRα or LXRβ (pCMX-hLXRβ)); expressed in transfected cells; host or cells: CV-1 African green monkey kidney cells, transient transfection with pCMX-hLXRβ
T1 sequence (P55055 1-460): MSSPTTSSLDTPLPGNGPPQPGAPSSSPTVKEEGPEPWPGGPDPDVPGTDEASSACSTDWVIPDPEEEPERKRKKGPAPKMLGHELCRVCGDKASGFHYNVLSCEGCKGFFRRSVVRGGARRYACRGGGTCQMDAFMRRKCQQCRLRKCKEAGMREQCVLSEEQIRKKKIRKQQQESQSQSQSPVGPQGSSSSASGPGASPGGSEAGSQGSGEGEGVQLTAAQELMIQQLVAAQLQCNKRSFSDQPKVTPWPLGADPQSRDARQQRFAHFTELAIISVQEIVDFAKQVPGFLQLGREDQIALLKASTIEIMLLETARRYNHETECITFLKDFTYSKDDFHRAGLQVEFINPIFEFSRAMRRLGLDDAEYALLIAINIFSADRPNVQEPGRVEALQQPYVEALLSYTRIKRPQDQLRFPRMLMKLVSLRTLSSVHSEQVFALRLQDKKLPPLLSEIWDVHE
T1 sequence (P19793 1-462 partner): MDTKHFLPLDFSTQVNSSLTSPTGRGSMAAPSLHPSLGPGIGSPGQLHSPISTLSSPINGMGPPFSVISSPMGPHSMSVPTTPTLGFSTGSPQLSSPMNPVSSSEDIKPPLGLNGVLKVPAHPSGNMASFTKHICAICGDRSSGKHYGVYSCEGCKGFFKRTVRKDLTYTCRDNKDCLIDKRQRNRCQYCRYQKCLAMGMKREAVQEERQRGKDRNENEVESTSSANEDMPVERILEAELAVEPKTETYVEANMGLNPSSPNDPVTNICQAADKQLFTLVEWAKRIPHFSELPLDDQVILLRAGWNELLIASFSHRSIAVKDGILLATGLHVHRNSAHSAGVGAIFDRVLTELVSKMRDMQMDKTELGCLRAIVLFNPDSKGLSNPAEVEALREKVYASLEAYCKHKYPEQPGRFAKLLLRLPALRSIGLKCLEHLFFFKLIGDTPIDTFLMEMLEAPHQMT
In words: LXR/LXRE co-transfection assay (luciferase reporter) in CV-1 cells, LXRβ. It is filed as cell-based. Particulars: for EC50: CV-1 cells transfected with pCMX-hLXRβ and LXREx1-Tk-Luciferase, 20 hours incubation, read-out: LXRbeta agonism EC50; for Emax / LXRbeta % EFFICACY: CV-1 cells, relative to maximum response of high control N-(3-((4-fluorophenyl)-(naphthalene-2-sulfonyl)amino)propyl)-2,2-dimethylpropionamide; for Emax: read-out: LXRbeta % EFFICACY
The essentials:
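Luciferase read-out after 20 h compound treatment at 37 °C of CV-1 cells carrying transfected hLXRβ plus one-copy LXRE reporter, endogenous RXR partnering. Sigmoidal fit of 10-point half-log curves (4 wells each) gave EC50; % efficacy versus maximal response of the propionamide reference agonist.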
On the technique in general: A reporter such as luciferase makes a cellular process visible.

A word on the EC50: it is the concentration at which the effect is half-maximal.

As to `Cc1nc(-c2ccc3c(c2)OC(F)(F)O3)c(-c2cc(-c3cccc(S(C)(=O)=O)c3)ccc2-c2cc(C(=O)NC3CC3)nn2C)o1` [Example 107, N-cyclopropyl-5-(3-(4-(2,2-difluorobenzo[d][1,3]dioxol-5-yl)-2-methyloxazol-5-yl)-3′-(methylsulfonyl)-[1,1′-biphenyl]-4-yl)-1-methyl-1H-pyrazole-3-carboxamide], the half-maximal effective concentration (EC50) turned out to be 1250 nM and the Emax came out at 37%.
As for `Cc1nc(-c2ccc3c(c2)OC(F)(F)O3)c(-c2cc(-c3cc(F)c(CO)c(S(C)(=O)=O)c3)ccc2-c2cc(C(=O)NC3CC3)nn2C)o1` [Example 108, N-cyclopropyl-5-(3-(4-(2,2-difluorobenzo[d][1,3]dioxol-5-yl)-2-methyloxazol-5-yl)-3′-fluoro-4′-(hydroxymethyl)-5′-(methylsulfonyl)-[1,1′-biphenyl]-4-yl)-1-methyl-1H-pyrazole-3-carboxamide], the EC50 worked out at 529 nM and the Emax amounted to 30%.
Take `Cc1nc(-c2ccc3c(c2)OC(F)(F)O3)c(-c2cc(-c3cccc(S(C)(=O)=O)c3)ccc2-c2cc(C(=O)NCC3CC3)nn2C)o1` [Example 109, N-(cyclopropylmethyl)-5-(3-(4-(2,2-difluorobenzo[d][1,3]dioxol-5-yl)-2-methyloxazol-5-yl)-3′-(methylsulfonyl)-[1,1′-biphenyl]-4-yl)-1-methyl-1H-pyrazole-3-carboxamide]: the EC50 amounted to 356 nM and the Emax is 52%.
In the same order, the values of `Cc1nc(-c2ccc3c(c2)OC(F)(F)O3)c(-c2cc(-c3cc(F)c(CO)c(S(C)(=O)=O)c3)ccc2-c2cc(C(=O)NCC3CC3)nn2C)o1` [Example 110, N-(cyclopropylmethyl)-5-(3-(4-(2,2-difluorobenzo[d][1,3]dioxol-5-yl)-2-methyloxazol-5-yl)-3′-fluoro-4′-(hydroxymethyl)-5′-(methylsulfonyl)-[1,1′-biphenyl]-4-yl)-1-methyl-1H-pyrazole-3-carboxamide] are 244 nM and 55%.
Turning to `Cc1nc(-c2ccc3c(c2)OC(F)(F)O3)c(-c2cc(-c3cccc(S(C)(=O)=O)c3)ccc2-c2cc(C(=O)NCC(F)(F)F)nn2C)o1` [Example 111, 5-(3-(4-(2,2-difluorobenzo[d][1,3]dioxol-5-yl)-2-methyloxazol-5-yl)-3′-(methylsulfonyl)-[1,1′-biphenyl]-4-yl)-1-methyl-N-(2,2,2-trifluoroethyl)-1H-pyrazole-3-carboxamide], the EC50 turned out to be 284 nM and the Emax stood at 51%.
On to `Cc1nc(-c2ccc3c(c2)OC(F)(F)O3)c(-c2cc(-c3cc(F)c(CO)c(S(C)(=O)=O)c3)ccc2-c2cc(C(=O)NCC(F)(F)F)nn2C)o1` [Example 112, 5-(3-(4-(2,2-difluorobenzo[d][1,3]dioxol-5-yl)-2-methyloxazol-5-yl)-3′-fluoro-4′-(hydroxymethyl)-5′-(methylsulfonyl)-[1,1′-biphenyl]-4-yl)-1-methyl-N-(2,2,2-trifluoroethyl)-1H-pyrazole-3-carboxamide], for which the EC50 stood at 257 nM and the Emax stood at 33%.
On to `Cc1nc(-c2ccc3c(c2)OC(F)(F)O3)c(-c2cc(-c3cccc(S(C)(=O)=O)c3)ccc2-c2cc(C(=O)NC(C)(C)C)nn2C)o1` [Example 113, N-(tert-butyl)-5-(3-(4-(2,2-difluorobenzo[d][1,3]dioxol-5-yl)-2-methyloxazol-5-yl)-3′-(methylsulfonyl)-[1,1′-biphenyl]-4-yl)-1-methyl-1H-pyrazole-3-carboxamide], for which the EC50 is 344 nM and the Emax worked out at 37%.
Consider `Cc1nc(-c2ccc3c(c2)OC(F)(F)O3)c(-c2cc(-c3cc(F)c(CO)c(S(C)(=O)=O)c3)ccc2-c2cc(C(=O)NC(C)(C)C)nn2C)o1` [Example 114, N-(tert-butyl)-5-(3-(4-(2,2-difluorobenzo[d][1,3]dioxol-5-yl)-2-methyloxazol-5-yl)-3′-fluoro-4′-(hydroxymethyl)-5′-(methylsulfonyl)-[1,1′-biphenyl]-4-yl)-1-methyl-1H-pyrazole-3-carboxamide], for which the concentration giving a half-maximal response (EC50) was determined as 273 nM and the Emax was determined as 28%.
For `Cc1nc(-c2ccc3c(c2)OC(F)(F)O3)c(-c2cc(-c3cc(F)c(CO)c(S(C)(=O)=O)c3)ccc2-c2cc(C(C)C#N)nn2C)o1` (centres unmarked) [Example 115, 2-(5-(3-(4-(2,2-difluorobenzo[d][1,3]dioxol-5-yl)-2-methyloxazol-5-yl)-3′-fluoro-4′-(hydroxymethyl)-5′-(methylsulfonyl)-[1,1′-biphenyl]-4-yl)-1-methyl-1H-pyrazol-3-yl)propanenitrile], the EC50 worked out at 19 nM and the Emax is 62%.
As to `Cc1nc(-c2ccc3c(c2)OC(F)(F)O3)c(-c2cc(-c3cccc(S(C)(=O)=O)c3)ccc2-c2cc(C(C)C#N)nn2C)o1` (centres unmarked) [Example 116, 2-(5-(3-(4-(2,2-difluorobenzo[d][1,3]dioxol-5-yl)-2-methyloxazol-5-yl)-3′-(methylsulfonyl)-[1,1′-biphenyl]-4-yl)-1-methyl-1H-pyrazol-3-yl)propanenitrile], the EC50 was 26 nM and the “LXRbeta % EFFICACY” value stood at 99%.
Regarding `Cc1nc(-c2ccc3c(c2)OC(F)(F)O3)c(-c2cc(-c3cccc(S(C)(=O)=O)c3)ccc2-c2cc(C(C)C#N)nn2C)o1` (centres unmarked) [Example 117, 2-(5-(3-(4-(2,2-difluorobenzo[d][1,3]dioxol-5-yl)-2-methyloxazol-5-yl)-3′-(methylsulfonyl)-[1,1′-biphenyl]-4-yl)-1-methyl-1H-pyrazol-3-yl)propanenitrile], the EC50 amounted to 49 nM and the “LXRbeta % EFFICACY” value is 70%.
Consider `Cc1nc(-c2ccc3c(c2)OC(F)(F)O3)c(-c2cc(-c3cccc(S(C)(=O)=O)c3)ccc2-c2cc(C3(C#N)CC3)nn2C)o1` [Example 118, 1-(5-(3-(4-(2,2-difluorobenzo[d][1,3]dioxol-5-yl)-2-methyloxazol-5-yl)-3′-(methylsulfonyl)-[1,1′-biphenyl]-4-yl)-1-methyl-1H-pyrazol-3-yl) cyclopropanecarbonitrile], for which the EC50 is 7 nM and the Emax was determined as 86%.
`Cc1nc(-c2ccc3c(c2)OC(F)(F)O3)c(-c2cc(-c3cccc(S(C)(=O)=O)c3)ccc2-c2cc(CC(N)=O)nn2C)o1` [Example 119, 2-(5-(3-(4-(2,2-difluorobenzo[d][1,3]dioxol-5-yl)-2-methyloxazol-5-yl)-3′-(methylsulfonyl)-[1,1′-biphenyl]-4-yl)-1-methyl-1H-pyrazol-3-yl)acetamide]: the EC50 was found to be 1080 nM and the Emax was determined as 60%.
Take `Cc1nc(-c2ccc3c(c2)OC(F)(F)O3)c(-c2cc(-c3cc(F)c(CO)c(S(C)(=O)=O)c3)ccc2-c2cc(CC(C)(C)O)nn2C)o1` [Example 120, 1-(5-(3-(4-(2,2-difluorobenzo[d][1,3]dioxol-5-yl)-2-methyloxazol-5-yl)-3′-fluoro-4′-(hydroxymethyl)-5′-(methylsulfonyl)-[1,1′-biphenyl]-4-yl)-1-methyl-1H-pyrazol-3-yl)-2-methylpropan-2-ol]: the EC50 was 46 nM and the Emax worked out at 32%.
As for `Cc1nc(-c2ccc3c(c2)OC(F)(F)O3)c(-c2cc(-c3cccc(S(C)(=O)=O)c3)ccc2-c2cc(CC(C)(C)O)nn2C)o1` [Example 121, 1-(5-(3-(4-(2,2-difluorobenzo[d][1,3]dioxol-5-yl)-2-methyloxazol-5-yl)-3′-(methylsulfonyl)-[1,1′-biphenyl]-4-yl)-1-methyl-1H-pyrazol-3-yl)-2-methylpropan-2-ol], the EC50 was 175 nM and the Emax worked out at 40%.
For the compound `Cc1nc(-c2ccc3c(c2)OC(F)(F)O3)c(-c2cc(-c3cc(F)c(CO)c(S(C)(=O)=O)c3)ccc2-c2cc(C#N)nn2C)o1` [Example 122, 5-(3-(4-(2,2-difluorobenzo[d][1,3]dioxol-5-yl)-2-methyloxazol-5-yl)-3′-fluoro-4′-(hydroxymethyl)-5′-(methylsulfonyl)-[1,1′-biphenyl]-4-yl)-1-methyl-1H-pyrazole-3-carbonitrile], the EC50 is 63 nM and the Emax is 22%.
